≈ marks a conversion by molar mass, not a printed value. Where a name gives a salt, the structure may show the parent alone. Read-outs that look alike come from different tables or passages of the source.

Assay [1] relates to Staphylococcus aureus subsp. aureus (ATCC29213). Nature of the assay: MIC, broth microdilution (CLSI), Staphylococcus aureus ATCC29213. To be noted: Staphylococcus aureus. The class given is cell-based.
Assay [2] has as its system Escherichia coli (ATCC25922). The assay is described as follows: MIC, broth microdilution (CLSI), Escherichia coli. To be noted: Escherichia coli, ATCC25922, read-out: E. coli ATCC 25922 MIC, Table XIII.
Experimental: Initial minimal inhibitory concentration (MIC) tests were made on two bacterial strains: • Escherichia coli (ATCC25922) • Staphylococcus aureus (ATCC25923).
MIC values were determined using the standard broth microdilution procedure based on the guidelines by the Clinical and Laboratory Standards Institute (CLSI). Briefly, the compounds were dissolved in DMSO to 10 mM. They were diluted in cation-adjusted Mueller-Hinton broth (CAMHB) to four times the highest concentration tested. A serial two-fold dilution in CAMHB was done in microdilution plates. The inoculum of bacterial strain to be tested was prepared by making a suspension of colonies from an 18 to 24 hours old plate in CAMHB. The inoculum was diluted so that, after inoculation, each well contained approximately 5×10^5 CFU/mL. To a volume of 50 μl compound in CA 3 an equal volume of inoculum was added. The tray was sealed in a plastic bag and incubated at 35° C. for 16 to 20 hours. To aid in the detection of growth the dye resazurin was added to a final concentration 0.001% and incubated at room temperature for 1 h. Reduction of resazurin, and therefore bacterial growth, was seen as a change from blue to pink.
The test system of assay [3] is Staphylococcus aureus (ATCC25923). Nature of the assay: MIC, broth microdilution (CLSI), Staphylococcus aureus ATCC25923. To be noted: Staphylococcus aureus, ATCC25923, read-out: S. aureus ATCC 25923 MIC.
The test system of assay [4] is E. coli RNase P RNA, M1 RNA. The assay is described as follows: Inhibition of bacterial RNase P activity, IC50 determination (cleavage of pATSerUG by M1 RNA). It is filed as biochemical. To be noted: NI: No inhibition.
Setting [5] is: ATCC29213, Table XIII, read-out: S. aureus ATCC 29213 MIC.
The mark [6] stands for this setting: ATCC29213, read-out: S. aureus ATCC 29213 MIC, Table XIII.

In the case of `Cl.c1ccc(-c2ccc(CNCCc3c[nH]c4ccccc34)cc2)cc1` [Compound 24, N-([1,1′-biphenyl]-4-ylmethyl)-2-(1H-indol-3-yl)ethan-1-amine hydrochloride salt], the MIC came to 6 µg/mL in assay [1] (setting [5]), 46 µg/mL in assay [2] and 6 µg/mL in assay [3].

As to `Cc1cccc(C(CC(=O)NC2CCNCC2)c2cn(CCC3CCCCC3)c3ccccc23)c1.Cl` (stereo not shown) [Compound 109, 3-(1-(2-cyclohexylethyl)-1H-indol-3-yl)-N-(piperidin-4-yl)-3-(m-tolyl)propanamide hydrochloride salt], the MIC in assay [1] (setting [5]) was 4 µg/mL; in assay [2], 128 µg/mL; in assay [3] it was 4 µg/mL. Moreover, the IC50 in assay [4] was found to be 3.7 µM.

As to `FC(F)(F)Oc1cccc(-c2ccc3c(c2)c(C2CCCC(NC4CCNCC4)C2)cn3C2CCCCC2)c1` (stereo not shown) [Compound 403, N-(3-(1-cyclohexyl-5-(3-(trifluoromethoxy)phenyl)-1H-indol-3-yl)cyclohexyl) piperidin-4-amine hydrochloride salt], the MIC in assay [1] (setting [6]) turned out to be 4 µg/mL; in assay [2] it was 16 µg/mL. In assay [4], this molecule had a half-inhibitory concentration (IC50) of 7 µM.

As to `NCCCNC1CCCC(c2cn(C3CCCCC3)c3ccc(-c4cccc(OC(F)(F)F)c4)cc23)C1` (stereo not shown) [Compound 404, N1-(3-(1-cyclohexyl-5-(3-(trifluoromethoxy)phenyl)-1H-indol-3-yl)cyclohexyl)propane-1,3-diamine hydrochloride salt], the MIC in assay [1] (setting [6]) was 4 µg/mL; in assay [2], 8 µg/mL. In assay [4], this molecule displayed a concentration for half-maximal inhibition (IC50) of 4.8 µM.

Regarding `Cl.Cl.N#Cc1ccc2c(c1)c(C(CCN[C@H]1CC[C@H](N)CC1)C1CCCCC1)cn2C1CCCCC1` (stereo partly drawn) [Compound 407, 3-(3-(((1R,4R)-4-aminocyclohexyl)amino)-1-cyclohexylpropyl)-1-cyclohexyl-1H-indole-5-carbonitrile salt], the MIC was determined as 4 µg/mL in assay [1] (setting [5]) and 8 µg/mL in assay [2]. The molecule also gave an IC50 in assay [4] of 23 µM.

In the case of `Cc1cccc(CC(CCNC2CCC(N)CC2)c2cn(C3CCCCC3)c3ccccc23)c1.Cl.Cl` [Compound 408, (1R,4R)-N1-(3-(1-cyclohexyl-1H-indol-3-yl)-4-(m-tolyl)butyl)cyclohexane-1,4-diamine hydrochloride salt], the MIC in assay [1] (setting [5]) was determined as 4 µg/mL; in assay [2] it was 8 µg/mL. Besides, the IC50 in assay [4] is 21 µM.

Regarding `Cc1cccc(C(CCN[C@H]2CC[C@H](N)CC2)c2cn(C3CCCCC3)c3ccc(-c4ccnn4C)cc23)c1.Cl.Cl` (stereo partly drawn) [Compound 409, (1R,4R)-N1-(3-(1-cyclohexyl-5-(1-methyl-1H-pyrazol-5-yl)-1H-indol-3-yl)-3-(m-tolyl)propyl)cyclohexane-1,4-diamine hydrochloride salt], the minimum inhibitory concentration (MIC) amounted to 4 µg/mL in assay [1] (setting [5]) and 16 µg/mL in assay [2]. 39 µM corresponded to half-maximal inhibition in assay [4] (IC50).

As for `Cl.Cl.N#Cc1ccc2c(C(CCNCCCN)c3cccc(OC(F)(F)F)c3)cn(C3CCCCC3)c2c1` (stereo not shown) [Compound 410, 3-(3-((3-aminopropyl)amino)-1-(3-(trifluoromethoxy)phenyl)propyl)-1-cyclohexyl-1H-indole-6-carbonitrile salt], the MIC in assay [1] (setting [5]) and in assay [2] was 4 µg/mL throughout. Besides, the IC50 in assay [4] was 10 µM.

In the case of `Cc1cccc(C(CCNCCCN)c2cn(C3CCCCC3)c3ccc(-c4ccncc4)cc23)c1.Cl.Cl` (stereo not shown) [Compound 412, N1-(3-(1-cyclohexyl-5-(pyridin-4-yl)-1H-indol-3-yl)-3-(m-tolyl)propyl) propane-1,3-diamine hydrochloride salt], the MIC was 2 µg/mL in assay [1] (setting [5]) and 4 µg/mL in assay [2]. Also, half-maximal inhibition in assay [4] (IC50) required 18 µM.

For `N#Cc1ccc2c(c1)c(C(CCNC1CCNC1)C1CCCCC1)cn2C1CCCCC1` (stereo not shown) [Compound 413, 1-cyclohexyl-3-(1-cyclohexyl-3-(pyrrolidin-3-ylamino)propyl)-1H-indole-5-carbonitrile hydrochloride salt], the MIC in assay [1] (setting [6]) stood at 4 µg/mL; in assay [2] it was 8 µg/mL. In assay [4], the IC50 turned out to be 20 µM.

Regarding `N#Cc1ccc2c(C(CCNC3CCNCC3)c3cccc(OC(F)(F)F)c3)cn(C3CCCCC3)c2c1` (stereo not shown) [Compound 414, 1-cyclohexyl-3-(3-(piperidin-4-ylamino)-1-(3-(trifluoromethoxy)phenyl)propyl)-1H-indole-6-carbonitrile hydrochloride salt], the MIC in assay [1] (setting [6]) came out at 4 µg/mL; in assay [2], 8 µg/mL. The molecule further yielded an IC50 in assay [4] of 16 µM.

On to `N#Cc1ccc2c(C(CCNC3CCC(N)CC3)c3cccc(OC(F)(F)F)c3)cn(C3CCCCC3)c2c1` [Compound 415, 3-(3-(((1S,4S)-4-aminocyclohexyl)amino)-1-(3-(trifluoromethoxy)phenyl)propyl)-1-cyclohexyl-1H-indole-6-carbonitrile hydrochloride salt], for which the MIC amounted to 4 µg/mL in assay [1] (setting [6]) and 16 µg/mL in assay [2]. The same molecule had an IC50 in assay [4] of 16 µM.

Consider `CCC(CC)C(CCNCCCN)c1cn(C2CCCCC2)c2ccccc12.Cl.Cl` (stereo not shown) [Compound 416, N1-(3-(1-cyclohexyl-1H-indol-3-yl)-4-ethylhexyl)propane-1,3-diamine hydrochloride salt], for which the MIC in assay [1] (setting [5]) was 4 µg/mL; in assay [2] it was 2 µg/mL. For the same molecule, the IC50 in assay [4] came to 26 µM.

Take `CCCCCCCCn1cc(C(CCNCCCN)C2CCCCC2)c2ccccc21.Cl.Cl` (stereo not shown) [Compound 417, N1-(3-cyclohexyl-3-(1-octyl-1H-indol-3-yl)propyl)propane-1,3-diamine hydrochloride salt]: the MIC in assay [1] (setting [5]) came to 2 µg/mL; in assay [2], 4 µg/mL. Besides, the IC50 in assay [4] came to 2.8 µM.

As for `Cc1cccc(CC(CCNC2CCNCC2)c2cn(C3CCCCC3)c3ccccc23)c1` (stereo not shown) [Compound 418, N-(3-(1-cyclohexyl-1H-indol-3-yl)-4-(m-tolyl)butyl)piperidin-4-amine hydrochloride salt], the MIC came out at 8 µg/mL in assay [1] (setting [6]) and 4 µg/mL in assay [2]. In addition, inhibition in assay [4] was half-maximal at 17 µM (IC50).

As to `NCCCNC1CCCC(c2cn(C3CCCCC3)c3ccc(C4CCCCC4)cc23)C1` (stereo not shown) [Compound 420, N1-(3-(1,5-dicyclohexyl-1H-indol-3-yl)cyclohexyl)propane-1,3-diamine], the MIC in assay [1] (setting [5]) and in assay [2] was 2 µg/mL (≈ 4.59 µM) each time. Besides, in assay [4], the IC50 was 8.4 µM.

`CC(C)=CCC/C(C)=C/Cn1cc(C(CCNCCCN)C2CCCCC2)c2ccccc21` (stereo not shown) [Compound 421, (E)-N1-(3-cyclohexyl-3-(1-(3,7-dimethylocta-2,6-dien-1-yl)-1H-indol-3-yl)propyl)propane-1,3-diamine]: the MIC in assay [1] (setting [5]) is 4 µg/mL (≈ 8.89 µM); in assay [2], 8 µg/mL (≈ 17.8 µM). The molecule further gave an IC50 in assay [4] of 8.3 µM.

Regarding `Cl.Cl.NCCCNCCC(c1cn(C2CCCCC2)c2ccccc12)C1CCCC1` (stereo not shown) [Compound 423, N1-(3-(1-cyclohexyl-1H-indol-3-yl)-3-cyclopentylpropyl) propane-1,3-diamine hydrochloride salt], the values for the MIC in assay [1] (setting [5]) and in assay [2] were 8 µg/mL and 2 µg/mL, respectively. For the same molecule, the IC50 in assay [4] is 31 µM.

Consider `Cc1cccc(C(CCNCCCN)c2cn(CC3CCCCC3)c3ccc([N+](=O)[O-])cc23)c1` (stereo not shown) [Compound 424, N1-(3-(1-cyclohexylmethyl)-5-nitro-1H-indol-3-yl)-3-(m-tolyl)propyl)propane-1,3-diamine hydrochloride salt], for which the results for the MIC in assay [1] (setting [5]) and in assay [2] were 2 µg/mL and 4 µg/mL, respectively. In addition, the half-inhibitory concentration (IC50) in assay [4] came out at 8.5 µM.

For the molecule `Cc1cccc(C(CCNC2CCC(N)CC2)c2cn(CC3CCCCC3)c3ccc([N+](=O)[O-])cc23)c1` [Compound 425, (1S,4S)-N1-(3-(1-(cyclohexylmethyl)-5-nitro-1H-indol-3-yl)-3-(m-tolyl)propyl) cyclohexane-1,4-diamine hydrochloride salt], the MIC in assay [1] (setting [5]) is 2 µg/mL; in assay [2], 8 µg/mL. In assay [4], this molecule came in with an IC50 of 12 µM.

On to `CCCCCCCCn1cc(C(CCNCCCN)C(CC)CC)c2ccccc21.Cl.Cl` (stereo not shown) [Compound 426, N1-(4-ethyl-3-(1-octyl-1H-indol-3-yl)hexyl)propane-1,3-diamine hydrochloride salt], for which the minimum inhibitory concentration (MIC) in assay [1] (setting [5]) and in assay [2] was 4 µg/mL in each case. The half-inhibitory concentration (IC50) in assay [4] came out at 8.3 µM.

On to `CCCCCCCCn1cc(C(CCNCCCN)C2CCCCC2)c2cc(C#N)ccc21.Cl.Cl` (stereo not shown) [Compound 427, 3-(3-((3-aminopropyl)amino)-1-cyclohexylpropyl)-1-octyl-1H-indole-5-carbonitrile hydrochloride salt], for which the MIC came out at 2 µg/mL in assay [1] (setting [5]) and 4 µg/mL in assay [2]. In assay [4], this molecule had an IC50 of 4.4 µM.

As for `Cc1cccc(C(CCNC2CCNCC2)c2cn(CC3CCCCC3)c3ccc([N+](=O)[O-])cc23)c1` (stereo not shown) [Compound 428, N-(3-(1-(cyclohexylmethyl)-5-nitro-1H-indol-3-yl)-3-(m-tolyl)propyl)piperidin-4-amine hydrochloride salt], the MIC is 4 µg/mL in assay [1] (setting [6]) and 32 µg/mL in assay [2]. Moreover, the midpoint of inhibition in assay [4], the IC50, lay at 15 µM.

`Cl.Cl.NCCCNCCC(c1cn(C2CCCCC2)c2ccc(Br)cc12)C1CCCCC1` (stereo not shown) [Compound 429, N1-(3-(5-bromo-1-cyclohexyl-1H-indol-3-yl)-3-cyclohexylpropyl) propane-1,3-diamine hydrochloride salt]: the MIC in assay [1] (setting [5]) amounted to 2 µg/mL; in assay [2], 4 µg/mL. For the same molecule, the IC50 in assay [4] stood at 11 µM.

`Cc1cccc(C(CCNCCCN)c2cn(C3CCCCC3)c3ccc(Br)cc23)c1.Cl.Cl` (stereo not shown) [Compound 655, N1-(3-(5-bromo-1-cyclohexyl-1H-indol-3-yl)-3-(m-tolyl)propyl)propane-1,3-diamine hydrochloride salt]: the MIC in assay [1] (setting [5]) and in assay [2] was 4 µg/mL throughout. The same molecule had a half-inhibitory concentration (IC50) in assay [4] of 11 µM.

The record behind these values is patent US20210246115A1 (Bioimics AB, priority 2017, published 2021).
